Laboratory results taken from PubChem BioAssay (NCI).
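Results reflect a 48-hour exposure of cells in 96-well plates to compound at five concentrations. TGI is the concentration that stops growth completely.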

How the values were obtained:
Experiment in all cases: inhibition of tumour cell growth, NCI panel, 48 h
786-0 renal = test system: 786-0 renal
CAKI-1 renal = test system: CAKI-1 renal
HCT-116 colon = test system: HCT-116 colon
HOP-92 NSCLC = test system: HOP-92 NSCLC
IGROV1 ovarian = test system: IGROV1 ovarian
LOX IMVI melanoma = test system: LOX IMVI melanoma
M14 melanoma = test system: M14 melanoma
NCI-H522 lung = test system: NCI-H522 lung
PC-3 prostate = test system: PC-3 prostate
RXF 393 renal = test system: RXF 393 renal
SNB-19 CNS = test system: SNB-19 CNS
SNB-75 CNS = test system: SNB-75 CNS
T-47D breast = test system: T-47D breast
TK-10 renal = test system: TK-10 renal
UACC-257 melanoma = test system: UACC-257 melanoma
CCRF-CEM leukemia = test system: CCRF-CEM leukemia
EKVX NSCLC = test system: EKVX NSCLC
SF-539 CNS = test system: SF-539 CNS
SR leukemia = test system: SR leukemia
MCF7 breast = test system: MCF7 breast

Row | SMILES | TGI (786-0 renal) [µM] | TGI (CAKI-1 renal) [µM] | TGI (HCT-116 colon) [µM] | TGI (HOP-92 NSCLC) [µM] | TGI (IGROV1 ovarian) [µM] | TGI (LOX IMVI melanoma) [µM] | TGI (M14 melanoma) [µM] | TGI (NCI-H522 lung) [µM] | TGI (PC-3 prostate) [µM] | TGI (RXF 393 renal) [µM] | TGI (SNB-19 CNS) [µM] | TGI (SNB-75 CNS) [µM] | TGI (T-47D breast) [µM] | TGI (TK-10 renal) [µM] | TGI (UACC-257 melanoma) [µM] | TGI (CCRF-CEM leukemia) [µM] | TGI (EKVX NSCLC) [µM] | TGI (SF-539 CNS) [µM] | TGI (SR leukemia) [µM] | TGI (MCF7 breast) [µM]
1 | CSc1nc2c(c(N(C)C)n1)C=Nn1c(nc3ccccc31)S2 | > 100 | > 100 | > 100 | 89.4 | > 100 | > 100 | > 100 | > 100 | > 100 | > 100 | > 100 | > 100 | > 100 | > 100 | > 100 | – | – | – | – | –
2 | COc1cc2c(cc1O)[C@H](C)C(c1ccc(Cl)cc1)O2 (stereo not given in full) | 32 | 49.2 | 30.1 | 40.4 | > 100 | 29.4 | 55.1 | 27.3 | – | 77.5 | > 100 | 43.3 | – | 78.8 | > 100 | 39 | 92.3 | > 100 | – | –
3 | C=CCN1C(=O)CS/C1=N\NC(=O)c1c(C)nc2sccn12 | > 100 | > 100 | > 100 | > 100 | > 100 | > 100 | – | > 100 | – | > 100 | > 100 | – | – | > 100 | > 100 | > 100 | > 100 | > 100 | > 100 | –
4 | COC(=O)/C(=C/c1ccc(OC)cc1)C(C(=O)O)=C(C)C | > 100 | > 100 | > 100 | > 100 | > 100 | > 100 | > 100 | > 100 | – | > 100 | > 100 | – | – | > 100 | > 100 | > 100 | > 100 | > 100 | > 100 | –
5 | CC(C)(C)C1CCC2c3c([nH]c4ccccc34)C3C(=O)N(c4cc(Br)cc(Br)c4)C(=O)C3C2C1 (stereo not given) | 18.6 | 66.6 | 23.1 | 8.82 | > 100 | > 100 | > 100 | 66.4 | 33.2 | – | – | – | – | 59.2 | > 100 | 25.1 | 59.4 | 34 | 82.4 | 17.5
6 | CN(C)[C@@H]1C(=O)C(C(N)=O)=C(O)[C@@]2(O)C(=O)C3=C(O)c4c(O)cccc4C[C@H]3C[C@@H]12 | 5.92 | 4.3 | 3.28 | 5.19 | 4.8 | – | 3.87 | 4.29 | – | 3.11 | 4.47 | 2.98 | – | 7.53 | – | 5.65 | – | 3.84 | 6.05 | –
7 | CC12CC3c4ccccc4CN1C3(c1ccccc1)OC2=O (stereo not given) | > 100 | > 100 | > 100 | – | > 100 | > 100 | > 100 | > 100 | > 100 | > 100 | > 100 | > 100 | > 100 | > 100 | > 100 | > 100 | > 100 | > 100 | – | –
8 | CC(C)(C)C1CC[C@H]2c3c([nH]c4ccc(Br)cc34)[C@H]3C(=O)N(c4ccccc4)C(=O)[C@H]3[C@H]2C1 (stereo not given in full) | 23.6 | > 100 | > 100 | 78.7 | > 100 | > 100 | > 100 | 69.3 | – | > 100 | 66.9 | 54.9 | – | > 100 | > 100 | 20.1 | > 100 | – | 12.1 | –
9 | O=C(/C=C/c1ccc(OCCCCCCCCCCOc2ccc(/C=C/C(=O)c3ccc(Cl)cc3)cc2)cc1)c1ccc(Cl)cc1 | > 100 | > 100 | – | > 100 | > 100 | > 100 | – | > 100 | – | > 100 | > 100 | > 100 | – | > 100 | > 100 | > 100 | > 100 | > 100 | – | –
10 | Cc1ccc(-c2cc(-c3ccco3)nc(N)n2)o1 | > 100 | – | > 100 | – | > 100 | > 100 | > 100 | > 100 | – | > 100 | > 100 | > 100 | – | > 100 | – | > 100 | > 100 | > 100 | > 100 | –
11 | On1c(-c2ccccc2)c(-c2c(-c3ccccc3)n(O)c3ccccc23)c2ccccc21 | 39.7 | – | > 100 | – | – | 73.2 | – | 52.3 | – | > 100 | > 100 | 94 | – | > 100 | 88.9 | > 100 | – | 58.8 | – | –
12 | Cc1c2c(n3c(nc4ccccc43)c1C#N)N(c1ccc(Cl)cc1)CC2 | > 100 | > 100 | > 100 | > 100 | > 100 | > 100 | > 100 | > 100 | > 100 | > 100 | > 100 | > 100 | – | > 100 | > 100 | > 100 | > 100 | > 100 | – | > 100
13 | COC(=O)Cc1c([C@@H]2Nc3ccccc3[C@H]2CC(=O)OC)[nH]c2ccccc12 | > 100 | > 100 | > 100 | > 100 | > 100 | > 100 | – | – | > 100 | > 100 | > 100 | > 100 | – | > 100 | 81.6 | > 100 | > 100 | 67.5 | 71.4 | > 100
14 | Cc1cc(Br)c(N2C3=C(CC4=C2CCCC4=O)C(=O)CCC3)c(Br)c1 | > 100 | > 100 | – | 94.3 | > 100 | > 100 | > 100 | – | > 100 | 84.7 | > 100 | > 100 | – | > 100 | – | > 100 | > 100 | > 100 | > 100 | > 100
15 | O=C(NCCNCCO)N/N=C/c1cccc([N+](=O)[O-])c1 | > 100 | > 100 | > 100 | > 100 | > 100 | > 100 | > 100 | > 100 | – | > 100 | – | > 100 | – | > 100 | > 100 | > 100 | – | > 100 | – | –
16 | CCOC(=O)c1nc2c3c(ncn2n1)Oc1c(c(-c2ccccc2)nn1-c1ccccc1)C3c1ccc(OC)c(OC)c1 (stereo not given) | > 100 | > 100 | > 100 | > 100 | > 100 | > 100 | > 100 | > 100 | > 100 | 91.4 | 82.4 | 66.6 | – | > 100 | > 100 | > 100 | > 100 | 26.8 | > 100 | > 100
17 | O=c1c2cc([N+](=O)[O-])ccc2n2n1Cc1ccccc1CC2 | > 100 | > 100 | > 100 | – | > 100 | > 100 | > 100 | > 100 | > 100 | > 100 | > 100 | – | – | > 100 | > 100 | > 100 | 52.5 | > 100 | > 100 | > 100
18 | Cc1cc(-c2ccc(C(=O)C(Cl)(Cl)Cl)[nH]2)on1 | > 100 | 36.7 | > 100 | > 100 | – | > 100 | > 100 | 97.4 | > 100 | 41.9 | > 100 | > 100 | > 100 | 69.1 | > 100 | > 100 | > 100 | 33 | – | –
19 | CCCCOC1CC2(c3ccc(OC)cc3)C(=O)c3ccccc3N2O1 (stereo not given) | > 100 | > 100 | > 100 | – | > 10 | > 10 | > 100 | 81.2 | – | 50 | > 10 | > 100 | – | > 100 | 70.1 | > 100 | > 100 | > 100 | – | –
20 | N=C(N)/N=C(/C=C/c1ccccc1)CC1OC(=O)c2ccccc21 (stereo not given) | > 100 | > 100 | > 100 | – | > 100 | > 100 | > 100 | > 100 | – | > 100 | > 100 | > 100 | – | – | > 100 | > 100 | > 100 | > 100 | > 100 | –
21 | Oc1c(Cl)c2nccnc2c2ccccc12 | > 100 | – | > 100 | > 100 | > 100 | – | > 100 | > 100 | – | > 100 | – | > 100 | – | > 100 | > 100 | > 100 | > 100 | > 100 | – | –
22 | COc1c(C2(c3ccc(F)cc3)SCCCS2)c(=O)c1=O | > 100 | > 100 | > 100 | > 100 | – | > 100 | > 100 | – | > 100 | > 100 | > 100 | > 100 | – | > 100 | > 100 | > 100 | > 100 | > 100 | – | > 100
23 | O=c1[nH]cnc2c1nnn2CCCn1nnc2c(=O)[nH]cnc21 | > 100 | > 100 | > 100 | > 100 | > 100 | > 100 | > 100 | > 100 | – | > 100 | > 100 | – | – | > 100 | > 100 | > 100 | > 100 | > 100 | > 100 | –
24 | O=C(CCN1CCCCC1CCO)Nc1ccc2c(c1)C(=O)c1ccc(NC(=O)CCN3CCCCC3CCO)cc1C2=O (stereo not given) | 5.54 | 57.5 | 14.7 | 31 | 18.9 | 13.2 | – | 5.32 | – | 6.46 | 26.2 | 9.83 | – | 14.6 | 20.6 | > 100 | 27 | 7.89 | 29.3 | –
25 | COC(=O)OCC1OC(N2C(=O)NC(=O)C(I)C2N=[N+]=[N-])CC1OC(=O)OC (stereo not given) | > 100 | > 100 | > 100 | > 100 | > 100 | > 100 | > 100 | > 100 | – | > 100 | > 100 | > 100 | – | > 100 | > 100 | > 100 | – | > 100 | > 100 | –
26 | c1ccc2[nH]c(-c3nc4ccccc4o3)nc2c1 | > 100 | – | > 100 | > 100 | > 100 | > 100 | > 100 | > 100 | – | – | – | > 100 | – | > 100 | > 100 | > 100 | > 100 | > 100 | > 100 | –
27 | COc1ccc(-c2nc3ncccn3c2-c2ccc(S(C)=O)cc2)cc1 (stereo not given) | > 100 | 65.4 | > 100 | > 100 | > 100 | > 100 | > 100 | – | > 100 | – | > 100 | > 100 | – | – | > 100 | > 100 | – | > 100 | > 100 | > 100
28 | COc1c2nc(CCl)n(C)c(=O)c2c(OC)c2c(=O)n(C)c(CCl)nc12 | 3.29 | 2.94 | – | > 100 | 4.56 | 1.75 | – | 2.8 | 2.68 | 4.14 | 5.07 | 3.8 | – | 1.76 | 5.24 | 2.09 | 11.8 | 13.1 | – | 2.36
29 | CS(=O)(=O)NNS(=O)(=O)c1ccc(Br)cc1 | > 100 | > 100 | > 100 | > 100 | > 100 | > 100 | > 100 | > 100 | – | > 100 | > 100 | > 100 | – | > 100 | > 100 | > 100 | > 100 | > 100 | – | –
